Some test systems named below: CAKI-1 renal; EKVX NSCLC; HS 578T breast; LOX IMVI melanoma; NCI-H226 lung; RPMI-8226 leukemia; SR leukemia; UO-31 renal.
Common to all, as to test: NCI anticancer screen, dose series, 48 h

Each structure is given as a SMILES string.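 Each compound was tested at five concentrations against cells in 96-well plates for 48 hours. The concentration for full growth arrest is given as TGI.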

For `O=[N+]([O-])c1cc2oc(COc3ccccc3)nc2cc1Cl`, the TGI with CAKI-1 renal is 67.6 µM; in the test on EKVX NSCLC it was 73.6 µM; with HS 578T breast, over 100 µM; in the test with LOX IMVI melanoma, 35 µM; in the test with NCI-H226 lung it was 51.3 µM; in the test on RPMI-8226 leukemia, over 100 µM. Also, the TGI with SR leukemia is over 100 µM; with UO-31 renal, 66 µM.

On to `CC(C)(C)c1cc(C(P(=O)(c2ccccc2)c2ccccc2)P(=O)(c2ccccc2)c2ccccc2)cc(C(C)(C)C)c1O`, for which the TGI was 9.9 µM in the test with CAKI-1 renal; over 10 µM with EKVX NSCLC; 6.27 µM in the test with HS 578T breast; 4.04 µM in the test on LOX IMVI melanoma; 9.13 µM in the test with NCI-H226 lung; over 7.73 µM with RPMI-8226 leukemia. The values for the TGI with SR leukemia and in the test on UO-31 renal were over 8.37 µM and 6.99 µM, respectively.

As to `NC(=O)C(N)Cc1ccc(O)cn1` (stereo not given), the TGI in the test on CAKI-1 renal, in the test with EKVX NSCLC, in the test on HS 578T breast, in the test on LOX IMVI melanoma, in the test with NCI-H226 lung and with RPMI-8226 leukemia was over 100 µM each time. The TGI in the test on SR leukemia and in the test on UO-31 renal was over 100 µM each time.

On to `CC(C)(C)C(=O)OCC1CCC[N+]2(C)CCCCC12` (stereo not given), for which the TGI in the test on CAKI-1 renal, with EKVX NSCLC, in the test on HS 578T breast, with LOX IMVI melanoma, in the test on NCI-H226 lung and with RPMI-8226 leukemia was over 100 µM in each case. Also, the TGI in the test on SR leukemia and in the test with UO-31 renal was over 100 µM throughout.

As to `Oc1ccc2ccccc2c1/C=C/c1ccc2c(Br)cc(Br)c(O)c2n1`, the TGI with CAKI-1 renal stood at 26.7 µM; in the test on EKVX NSCLC, 15.3 µM; in the test on HS 578T breast it was 49.4 µM; with LOX IMVI melanoma, 23 µM; with NCI-H226 lung, 20.3 µM; with RPMI-8226 leukemia, 41.4 µM. The values for the TGI in the test on SR leukemia and with UO-31 renal were over 40.4 µM and 17.1 µM, respectively.

Turning to `COc1cc(/C=C2\CCC(C)C3C2=NN(C(C)=O)C3c2cc(OC)c(OC)c(OC)c2)cc(OC)c1OC` (stereo not given), the TGI in the test on CAKI-1 renal is over 100 µM; in the test on EKVX NSCLC, over 100 µM; in the test on HS 578T breast, over 92.2 µM; with LOX IMVI melanoma, over 100 µM; with NCI-H226 lung, over 100 µM; in the test with RPMI-8226 leukemia, over 100 µM. Further, in the test with SR leukemia, the TGI is over 100 µM.

With `C[N+](C)([O-])CCC=C1c2ccccc2CCc2ccccc21`, the TGI with CAKI-1 renal was 79.4 µM; in the test on EKVX NSCLC, 59 µM; in the test on HS 578T breast, 64.9 µM; in the test with LOX IMVI melanoma it was 2.7 µM; in the test with NCI-H226 lung it was 67.5 µM; in the test on RPMI-8226 leukemia it was 34.5 µM. The compound also came in with a TGI in the test with SR leukemia of 39.3 µM.

Take `CCC(C)(C)/C(CC(O)(C(F)(F)F)C(F)(F)F)=N\O`: the TGI with CAKI-1 renal, in the test with EKVX NSCLC, with HS 578T breast, in the test with LOX IMVI melanoma, with NCI-H226 lung and in the test on RPMI-8226 leukemia was over 100 µM in each case. Besides, the TGI with SR leukemia and in the test on UO-31 renal was over 100 µM in each case.

Regarding `CN(c1ccc(Cl)cc1)S(=O)(=O)c1cccc([N+](=O)[O-])c1`, the TGI in the test with CAKI-1 renal, in the test with EKVX NSCLC, in the test on HS 578T breast, in the test on LOX IMVI melanoma, in the test on NCI-H226 lung and in the test on RPMI-8226 leukemia was over 100 µM in each case. Besides, the TGI in the test on SR leukemia and with UO-31 renal was over 100 µM throughout.

For the compound `Cc1ccc(S(=O)(=O)N/N=C/C(=C/c2ccc(Cl)cc2)CC(/C=N/NS(=O)(=O)c2ccc(C)cc2)=C\c2ccc(Cl)cc2)cc1`, the TGI was determined as 68.4 µM with CAKI-1 renal; 38.4 µM with EKVX NSCLC; 21.5 µM with HS 578T breast; 3.73 µM in the test with LOX IMVI melanoma; 38 µM with NCI-H226 lung; 9.11 µM with RPMI-8226 leukemia. The TGI in the test with SR leukemia came out at 24.5 µM; with UO-31 renal it was 18.7 µM.

For the compound `N#CSC#Cc1ccc(C#CSC#N)cc1`, the TGI is 31.6 µM in the test on CAKI-1 renal; 37.2 µM with EKVX NSCLC; 48.8 µM in the test with HS 578T breast; 34.5 µM in the test with LOX IMVI melanoma; 53.6 µM in the test with NCI-H226 lung; over 100 µM in the test on RPMI-8226 leukemia. The TGI with SR leukemia was over 100 µM; in the test with UO-31 renal it was 33.6 µM.

Regarding `O/N=C1/COC(C(F)(F)F)(C(F)(F)F)C1`, the TGI with CAKI-1 renal, in the test with EKVX NSCLC, in the test on HS 578T breast, in the test on LOX IMVI melanoma, with NCI-H226 lung and in the test on RPMI-8226 leukemia was over 100 µM throughout. Also, the TGI with SR leukemia and in the test on UO-31 renal was over 100 µM each time.

As for `CC(=O)NC1C(OCc2ccccc2)OC(CO)C(O)C1OC(C)C(=O)NC(C)C(=O)NC(CCC(=O)NCCCNc1c2ccccc2nc2cccc([N+](=O)[O-])c12)C(N)=O` (stereo not given), the TGI was 7.87 µM with CAKI-1 renal; 22.6 µM in the test on EKVX NSCLC; 40.4 µM in the test with HS 578T breast; 27.7 µM in the test with LOX IMVI melanoma; 11.2 µM in the test with NCI-H226 lung; over 100 µM with RPMI-8226 leukemia. The results for the TGI with SR leukemia and in the test with UO-31 renal were over 100 µM and 8.3 µM, respectively.

Consider `C=C1C[C@@H]2O[C@H]3[C@H]4[C@@H](C[C@@H](C)[C@@H](OC(C)=O)[C@H]42)[C@@H](C)CO[C@@]3(C)[C@H](OC(C)=O)C[C@H]1O`, for which the TGI in the test on CAKI-1 renal was over 100 µM; in the test on EKVX NSCLC it was over 100 µM; in the test with HS 578T breast, over 100 µM; in the test with LOX IMVI melanoma, 38.7 µM; in the test on NCI-H226 lung, over 100 µM; in the test on SR leukemia it was over 100 µM. In addition, the TGI in the test with UO-31 renal was over 100 µM.

On to `O=C(O)c1nc(-c2ccccc2)ncc1-c1nnnn1-c1ccccc1`, for which the TGI in the test on CAKI-1 renal, in the test on EKVX NSCLC, with HS 578T breast, in the test with LOX IMVI melanoma, in the test on NCI-H226 lung and in the test with RPMI-8226 leukemia was over 100 µM each time. For the same compound, the TGI with SR leukemia and in the test on UO-31 renal was over 100 µM throughout.

`O=[N+]([O-])c1ccc(Cl)c(C=NC23CC4CC(CC(C4)C2)C3)c1`: the TGI with CAKI-1 renal, with EKVX NSCLC, in the test on HS 578T breast, in the test on LOX IMVI melanoma, in the test with NCI-H226 lung and with RPMI-8226 leukemia was over 10 µM each time. The TGI in the test on SR leukemia and with UO-31 renal was over 10 µM each time.

Source of the values: PubChem BioAssay (NCI).
